Data set [1] concerns Muhlenbergia. Briefly: Post-emergence herbicidal activity against Muhlenbergia frondosa assessed as reduction in dry weight at 35 g a.i./ha measured after 56 days in presence of 28% UAN relative to untreated-control. The class given is functional. Set-up: scale not given: the % may be the effect or the level left.
Data set [2] deals with Muhlenbergia. Briefly: Post-emergence herbicidal activity against Muhlenbergia frondosa assessed as increase in maize yield at 35 g a.i./ha in presence of 28% UAN relative to untreated-control. In kind it is functional.
Data set [3] has as its system Zea mays. As to the kind of experiment: Phytotoxicity against Zea mays (maize) crop assessed as crop injury at 35 g a.i./ha measured after 7 days in presence of 28% UAN relative to control. In kind it is organism-based. The conditions noted are these: in vivo, 168 h.
Data set [4] has as its system Muhlenbergia. As to the kind of experiment: Post-emergence herbicidal activity against Muhlenbergia frondosa at 35 g a.i./ha measured after 28 days in presence of 28% UAN relative to untreated-control. In kind it is functional.
For data set [5], the system named is Muhlenbergia. Briefly: Post-emergence herbicidal activity against Muhlenbergia frondosa assessed as reduction in density at 35 g a.i./ha measured after 56 days in presence of 28% UAN relative to untreated-control. In kind it is functional. Set-up: scale not given: the % may be the effect or the level left.
Data set [6] relates to Muhlenbergia. Briefly: Post-emergence herbicidal activity against Muhlenbergia frondosa at 35 g a.i./ha measured after 56 days in presence of 28% UAN relative to untreated-control. The class given is functional.
Data set [7] concerns Elymus repens. Briefly: Post-emergence herbicidal activity against Elymus repens (couch grass) relative to control. The class given is functional.
The subject of data set [8] is Muhlenbergia. As to the kind of experiment: Post-emergence herbicidal activity against Muhlenbergia frondosa assessed as reduction in dry weight at 25 g a.i./ha measured after 56 days in presence of Agral 90 relative to untreated-control. In kind it is functional. Set-up: scale not given: the % may be the effect or the level left.
Data set [9] relates to Zea mays. Briefly: Phytotoxicity against Zea mays (maize) crop assessed as crop injury at 25 g a.i./ha measured after 7 days in presence of Agral 90 relative to control. The class given is organism-based. The conditions noted are these: in vivo, 168 h.
The subject of data set [10] is Elymus repens. As to the kind of experiment: Post-emergence herbicidal activity against Elymus repens (couch grass) at 35 g/ha relative to control. In kind it is functional.
For data set [11], the system named is Muhlenbergia. Briefly: Post-emergence herbicidal activity against Muhlenbergia frondosa assessed as reduction in density at 25 g a.i./ha measured after 56 days in presence of Agral 90 relative to untreated-control. In kind it is functional. Set-up: scale not given: the % may be the effect or the level left.
The test system of data set [12] is Muhlenbergia. As to the kind of experiment: Post-emergence herbicidal activity against Muhlenbergia frondosa assessed as increase in maize yield at 25 g a.i./ha in presence of Agral 90 relative to untreated-control. The class given is functional.
Data set [13] relates to Muhlenbergia. As to the kind of experiment: Post-emergence herbicidal activity against Muhlenbergia frondosa at 25 g a.i./ha measured after 28 days in presence of Agral 90 relative to untreated-control. The class given is functional.
In data set [14] the test system is Muhlenbergia. Briefly: Post-emergence herbicidal activity against Muhlenbergia frondosa at 25 g a.i./ha measured after 56 days in presence of Agral 90 relative to untreated-control. The class given is functional.
In data set [15] the test system is Muhlenbergia. As to the kind of experiment: Post-emergence herbicidal activity against Muhlenbergia frondosa assessed as maize yield at 25 g a.i./ha in presence of Agral 90 (reference value: 9.64 tons/ha). The class given is functional.
The test system of data set [16] is Muhlenbergia. As to the kind of experiment: Post-emergence herbicidal activity against Muhlenbergia frondosa assessed as number of plants at 25 g a.i./ha measured after 56 days in presence of Agral 90 (reference value: 41 /m2). The class given is functional.
Data set [17] has as its system Elymus repens. Briefly: Post-emergence herbicidal activity against Elymus repens (couch grass) at 42 g/ha relative to control. The class given is functional.
In data set [18] the test system is Muhlenbergia. As to the kind of experiment: Post-emergence herbicidal activity against Muhlenbergia frondosa assessed as dry weight at 25 g a.i./ha measured after 56 days in presence of Agral 90 (reference value: 102 g). In kind it is functional.
For data set [19], the system named is Muhlenbergia. Briefly: Post-emergence herbicidal activity against Muhlenbergia frondosa assessed as dry weight at 15 g a.i./ha measured after 56 days in presence of Agral 90 (reference value: 102 g). The class given is functional.
For data set [20], the system named is Muhlenbergia. As to the kind of experiment: Post-emergence herbicidal activity against Muhlenbergia frondosa at 15 g a.i./ha measured after 56 days in presence of Agral 90 relative to untreated-control. In kind it is functional.
For data set [21], the system named is Muhlenbergia. Briefly: Post-emergence herbicidal activity against Muhlenbergia frondosa assessed as number of plants at 15 g a.i./ha measured after 56 days in presence of Agral 90 (reference value: 41 /m2). In kind it is functional.
Data set [22] deals with Muhlenbergia. Briefly: Post-emergence herbicidal activity against Muhlenbergia frondosa at 15 g a.i./ha measured after 28 days in presence of Agral 90 relative to untreated-control. In kind it is functional.
The subject of data set [23] is Muhlenbergia. Briefly: Post-emergence herbicidal activity against Muhlenbergia frondosa assessed as increase in maize yield at 15 g a.i./ha in presence of Agral 90 relative to untreated-control. The class given is functional.
The test system of data set [24] is Zea mays. As to the kind of experiment: Phytotoxicity against Zea mays (maize) crop assessed as crop injury at 15 g a.i./ha measured after 7 days in presence of Agral 90 relative to control. The class given is organism-based. The conditions noted are these: in vivo, 168 h.

We go through four compounds from ChEMBL document CHEMBL3046704, “Control of Muhlenbergia frondosa (wirestem muhly) with post-emergence sulfonylurea herbicides in maize (Zea mays)” (Crop Prot, 2007).

On to `COc1cc(OC)nc(NC(=O)NS(=O)(=O)c2cc(NC=O)ccc2C(=O)N(C)C)n1` [FORAMSULFURON], for which the Activity in [1] is given as 94%; in [2], 17%; in data set [3], 1.1%; in data set [4], 80%; in [5] it was 76%; in data set [6], 89%.
Consider `COc1cc(OC)nc(NC(=O)NS(=O)(=O)c2ncccc2C(=O)N(C)C)n1` [NICOSULFURON], for which the Activity is listed as 89% in data set [7]; 70% in data set [8]; 1.1% in [9]; 97% in [10]; 44% in data set [11]; 22% in data set [12]. In addition, the figures for the Activity in [13] and in data set [14] were 49% and 32%, respectively.
Consider `O=C(Nc1nc(OC(F)F)cc(OC(F)F)n1)NS(=O)(=O)c1ccccc1C(=O)O` [PRIMISULFURON], for which the Activity in [7] is 80%; in data set [16] it was 39 /m2; in data set [9], 1.2%; in data set [17], 94%; in [18], 78 g; in [13] it was 32%. For the same compound, in data set [14], the Activity is recorded as 12%. In addition, the Crop_yield in data set [15] came to 10.1 tons/ha.
Regarding `CCS(=O)(=O)c1cccnc1S(=O)(=O)NC(=O)Nc1nc(OC)cc(OC)n1` [RIMSULFURON], the Activity in data set [19] was 72 g; in data set [7] it was 63%; in data set [20], 14%; in [21], 44 /m2; in data set [22], 32%; in data set [23], 11%. Further, the Activity in data set [24] amounted to 1.2%.
